Laboratory results: article PMC10763179 (Open access Macedonian journal of medical sciences, 2023)

How the values were obtained:
[1] = system: larvae of marine crustaceans Artemia salina (Leach); test: Brine shrimp toxicity bioassay; assay type: in vivo; conditions: 24 h of exposure
HL-60(TB) = test: NCI60 screen; assay type: cell-based; conditions: Homo sapiens, HL-60, read-out: inhibition of cell growth
K-562 = test: NCI60 screen; assay type: cell-based; conditions: Homo sapiens, K562, read-out: inhibition of cell growth
SR = test: NCI60 screen; assay type: cell-based; conditions: Homo sapiens, read-out: inhibition of cell growth
COLO 205 = test: NCI60 screen; assay type: cell-based; conditions: Homo sapiens, COLO 205, read-out: inhibition of cell growth
HCT-116 = test: NCI60 screen; assay type: cell-based; conditions: Homo sapiens, HCT-116, read-out: inhibition of cell growth
HCT-15 = test: NCI60 screen; assay type: cell-based; conditions: Homo sapiens, HCT-15, read-out: inhibition of cell growth
HT29 = test: NCI60 screen; assay type: cell-based; conditions: Homo sapiens, HT-29, read-out: inhibition of cell growth
SW-620 = test: NCI60 screen; assay type: cell-based; conditions: Homo sapiens, SW-620, read-out: inhibition of cell growth
MDA-MB-435 = test: NCI60 screen; assay type: cell-based; conditions: Homo sapiens, MDA-MB-435, read-out: inhibition of cell growth
UACC-257 = test: NCI60 screen; assay type: cell-based; conditions: Homo sapiens, UACC-257, read-out: inhibition of cell growth
UACC-62 = test: NCI60 screen; assay type: cell-based; conditions: Homo sapiens, UACC-62, read-out: inhibition of cell growth
OVCAR-3 = test: NCI60 screen; assay type: cell-based; conditions: Homo sapiens, OVCAR-3, read-out: inhibition of cell growth
CAKI-1 = test: NCI60 screen; assay type: cell-based; conditions: Homo sapiens, CAKI-1, read-out: inhibition of cell growth
RXF 393 = test: NCI60 screen; assay type: cell-based; conditions: Homo sapiens, RXF 393, read-out: inhibition of cell growth
TK-10 = test: NCI60 screen; assay type: cell-based; conditions: Homo sapiens, TK-10, read-out: inhibition of cell growth
DU-145 = test: NCI60 screen; assay type: cell-based; conditions: Homo sapiens, DU-145, read-out: inhibition of cell growth
MCF7 = test: NCI60 screen; assay type: cell-based; conditions: Homo sapiens, MCF7, read-out: inhibition of cell growth
BT-549 = test: NCI60 screen; assay type: cell-based; conditions: Homo sapiens, BT-549, read-out: inhibition of cell growth
T-47D = test: NCI60 screen; assay type: cell-based; conditions: Homo sapiens, T47D, read-out: inhibition of cell growth
[2] = system: NCI60 human tumor cell lines; test: NCI60 screen; assay type: cell-based
[3] = Immunosuppressive activity

In the case of “hydroxyarglabin acetate [hydroxyarglabin acetate 12]”, the “IC50 against the larvae of Artemia salina” value [1] is reported as 77.8 µg/mL and the “LD500” value [1] is reported as 77.8 mg/mL.
`C=C1C(=O)O[C@@H]2[C@H]3C(C)=CC[C@@]34O[C@@]4(C)CC[C@@H]12` [Arglabin 6, arglabin] showed an inhibition at 8.3 µM (HL-60(TB)) of 97.4%, an inhibition at 8.3 µM (K-562) of 73.8% and an inhibition at 8.3 µM (SR) of 97.8%. For the same compound, the inhibition at 8.3 µM (COLO 205) was 57.6%, the inhibition at 8.3 µM (HCT-116) was 82.6% and the inhibition at 8.3 µM (HCT-15) was 75.4%. For the same compound, the inhibition at 8.3 µM (HT29) was 59.3%, the inhibition at 8.3 µM (SW-620) was 70.9% and the inhibition at 8.3 µM (MDA-MB-435) was 65.8%. For the same compound, the inhibition at 8.3 µM (UACC-257) was 55.9%, the inhibition at 8.3 µM (UACC-62) was 74.2% and the inhibition at 8.3 µM (OVCAR-3) was 69.6%. The inhibition at 8.3 µM (CAKI-1) was 73.4%, the inhibition at 8.3 µM (RXF 393) was 67.3% and the inhibition at 8.3 µM (TK-10) was 94.3%. The inhibition at 8.3 µM (DU-145) was 88.5%, the inhibition at 8.3 µM (MCF7) was 71.1% and the inhibition at 8.3 µM (BT-549) was 72.1%. For the same compound, the inhibition at 8.3 µM (T-47D) was 73.5%, the inhibition at 8.3 µM ([2]; Homo sapiens, read-out: average value of cell growth inhibition for all 60 NCI60 human tumor cell lines) was 45.9% and the “Mean tumor cell growth, %” value ([2]; mean over NCI60 panel, single dose 8.3 μM) was 54.15%. The “depressant effect on hematopoiesis” value (Effect on hematopoiesis) was “does not have a depressant effect on hematopoiesis” and the immunosuppressive activity [3] was “does not exhibit immunosuppressive activity”.
For `CC1=CCC23OC2(C)CCC2C(CN(C)C)C(=O)OC2C13.Cl` (stereo not drawn) [13-dimethylamino-1,10β-epoxy-5,7α,6, 11 β(H)-guai-3,4-ene-6,12-olide hydrochloride, reference compound], the “LD500” value [1] was 20.6 mg/mL.
In the case of `C[S+](C)[O-]` [dimethyl sulfoxide], the “LD500” value [1] is reported as 930.27 mg/mL.
